Experimental findings from publication PMC4585798 (Scientific Reports, 2015) are described below.

Positions of bridges follow the written chain, without caps; N, C: chain ends. Residues, ends and D or L forms follow the SMILES beside them.

Assay in all cases: cell-based
For assay [1], the target named is hα9α10 nAChR (Homo sapiens, UniProt Q9GZZ6+Q9UGM1).
In assay [2] the target is rα9α10 nAChR (Rattus norvegicus, UniProt P43144+Q9JLB5).
In assay [3] the target is hα9rα10 nAChR (UniProt Q9JLB5+Q9UGM1). The arrangement: species or system human α9 and rat α10.
In assay [4] the target is hα9α10[L7H] nAChR (Homo sapiens, UniProt Q9GZZ6+Q9UGM1, L31H). It is filed as cell-based.
hα9α10[L7H] nAChR, sequence (Q9UGM1 26-479 limits assumed, stated change not applied): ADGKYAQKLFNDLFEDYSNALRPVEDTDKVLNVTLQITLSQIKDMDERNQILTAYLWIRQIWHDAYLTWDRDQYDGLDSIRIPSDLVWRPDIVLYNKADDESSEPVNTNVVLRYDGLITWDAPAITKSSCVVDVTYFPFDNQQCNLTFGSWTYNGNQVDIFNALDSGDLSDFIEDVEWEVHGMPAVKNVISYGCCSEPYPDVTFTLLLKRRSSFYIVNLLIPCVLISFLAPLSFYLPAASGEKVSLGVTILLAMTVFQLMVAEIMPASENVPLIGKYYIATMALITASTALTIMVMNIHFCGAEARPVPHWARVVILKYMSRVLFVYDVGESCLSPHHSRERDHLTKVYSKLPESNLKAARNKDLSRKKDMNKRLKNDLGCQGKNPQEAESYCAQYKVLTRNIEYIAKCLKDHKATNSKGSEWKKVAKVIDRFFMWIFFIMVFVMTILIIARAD
hα9α10[L7H] nAChR, sequence (Q9GZZ6 25-450 L31H limits assumed, stated change not applied): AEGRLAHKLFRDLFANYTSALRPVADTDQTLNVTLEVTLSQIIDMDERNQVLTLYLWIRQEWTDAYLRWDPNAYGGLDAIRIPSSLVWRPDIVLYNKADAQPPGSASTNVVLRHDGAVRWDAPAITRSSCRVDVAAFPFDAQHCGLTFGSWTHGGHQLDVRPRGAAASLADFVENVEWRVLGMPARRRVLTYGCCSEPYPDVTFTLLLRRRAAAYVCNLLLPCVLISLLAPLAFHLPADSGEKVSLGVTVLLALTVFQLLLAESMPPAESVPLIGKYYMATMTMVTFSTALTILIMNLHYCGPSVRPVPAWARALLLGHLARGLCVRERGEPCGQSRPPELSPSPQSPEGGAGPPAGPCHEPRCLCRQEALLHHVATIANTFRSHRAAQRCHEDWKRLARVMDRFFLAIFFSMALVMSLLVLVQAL

rα9α10 nAChR, sequence (P43144 26-479 limits assumed): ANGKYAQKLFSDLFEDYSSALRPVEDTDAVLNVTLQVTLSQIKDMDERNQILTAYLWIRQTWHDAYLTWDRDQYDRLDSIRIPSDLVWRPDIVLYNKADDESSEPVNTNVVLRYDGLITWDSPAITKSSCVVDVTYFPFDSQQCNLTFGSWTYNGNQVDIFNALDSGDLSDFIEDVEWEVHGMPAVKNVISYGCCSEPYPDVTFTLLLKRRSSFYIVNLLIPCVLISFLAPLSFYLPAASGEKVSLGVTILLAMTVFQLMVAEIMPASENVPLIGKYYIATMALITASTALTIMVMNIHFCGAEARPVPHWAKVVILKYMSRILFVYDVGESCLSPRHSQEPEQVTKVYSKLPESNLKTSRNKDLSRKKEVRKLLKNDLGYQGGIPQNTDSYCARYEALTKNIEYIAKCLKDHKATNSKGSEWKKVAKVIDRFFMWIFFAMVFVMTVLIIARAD
rα9α10 nAChR, sequence (Q9JLB5 25-447 limits assumed): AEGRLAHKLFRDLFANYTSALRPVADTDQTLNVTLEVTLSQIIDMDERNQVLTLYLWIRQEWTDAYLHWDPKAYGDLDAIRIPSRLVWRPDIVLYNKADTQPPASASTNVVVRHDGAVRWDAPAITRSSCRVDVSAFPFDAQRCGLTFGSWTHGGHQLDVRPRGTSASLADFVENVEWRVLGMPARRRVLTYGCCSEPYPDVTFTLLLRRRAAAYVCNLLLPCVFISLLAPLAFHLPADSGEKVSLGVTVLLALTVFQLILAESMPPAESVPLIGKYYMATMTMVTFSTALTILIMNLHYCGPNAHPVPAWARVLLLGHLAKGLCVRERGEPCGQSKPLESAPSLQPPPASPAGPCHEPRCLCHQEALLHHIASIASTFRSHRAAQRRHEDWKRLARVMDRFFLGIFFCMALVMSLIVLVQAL
hα9rα10 nAChR, sequence (Q9UGM1 26-479 limits assumed): as the sequence (Q9UGM1 26-479 limits assumed, stated change not applied) above
hα9rα10 nAChR, sequence (Q9JLB5 25-447 limits assumed): as the sequence (Q9JLB5 25-447 limits assumed) above
hα9α10 nAChR, sequence (Q9UGM1 26-479 limits assumed): as the sequence (Q9UGM1 26-479 limits assumed, stated change not applied) above
hα9α10 nAChR, sequence (Q9GZZ6 25-450 limits assumed): as the sequence (Q9GZZ6 25-450 L31H limits assumed, stated change not applied) above, with H7L counted along it

For `CSCC[C@H](NC(=O)[C@@H](NC(=O)[C@@H]1CSSC[C@@H]2NC(=O)[C@H](CC(=O)O)NC(=O)[C@H](C)NC(=O)[C@H](CCCNC(=N)N)NC(=O)[C@H](C)NC(=O)[C@@H]3CSSC[C@H](NC(=O)CNC(=O)[C@H](Cc4c[nH]cn4)NC(=O)CNC(=O)[C@H](CCCNC(=N)N)NC(=O)[C@H](Cc4c[nH]c5ccccc45)NC(=O)[C@H]([C@@H](C)O)NC(=O)[C@H](Cc4c[nH]cn4)NC(=O)[C@H](Cc4ccc(O)cc4)NC(=O)[C@H](C(C)C)NC(=O)[C@H](CSSC[C@H](NC(=O)[C@H](CC(C)C)NC(=O)[C@H](CCCNC(=N)N)NC(=O)[C@@H](N)[C@@H](C)O)C(=O)N[C@@H](CO)C(=O)N[C@@H]([C@@H](C)O)C(=O)N[C@@H](CCSC)C(=O)N[C@@H](CO)C(=O)N3)NC(=O)[C@H]([C@@H](C)O)NC2=O)C(=O)N[C@@H](CO)C(=O)N1)C(C)C)C(=O)O` [GeXXA-CTD] (H-TRLCSTMSCARADCTCVYHTWRGHGCSCVM-OH; disulfide 4-16, 9-26, 14-28), the IC50 (in general, the point on the concentration scale where inhibition reaches its midpoint) in assay [1] worked out at 2020 nM; in assay [2] it was 198 nM; in assay [3], 224 nM; in assay [4], 183 nM.
